Experimental findings from patent US9301951B2 (Ardelyx, Inc., priority 2010, dated 2016) are described below.

In this experiment the target is T1, rat NaP2b (SLC34A2) (Rattus norvegicus, UniProt Q9JJ09).
T1 construct: host or cells: HEK293
T1 sequence (Q9JJ09 1-695): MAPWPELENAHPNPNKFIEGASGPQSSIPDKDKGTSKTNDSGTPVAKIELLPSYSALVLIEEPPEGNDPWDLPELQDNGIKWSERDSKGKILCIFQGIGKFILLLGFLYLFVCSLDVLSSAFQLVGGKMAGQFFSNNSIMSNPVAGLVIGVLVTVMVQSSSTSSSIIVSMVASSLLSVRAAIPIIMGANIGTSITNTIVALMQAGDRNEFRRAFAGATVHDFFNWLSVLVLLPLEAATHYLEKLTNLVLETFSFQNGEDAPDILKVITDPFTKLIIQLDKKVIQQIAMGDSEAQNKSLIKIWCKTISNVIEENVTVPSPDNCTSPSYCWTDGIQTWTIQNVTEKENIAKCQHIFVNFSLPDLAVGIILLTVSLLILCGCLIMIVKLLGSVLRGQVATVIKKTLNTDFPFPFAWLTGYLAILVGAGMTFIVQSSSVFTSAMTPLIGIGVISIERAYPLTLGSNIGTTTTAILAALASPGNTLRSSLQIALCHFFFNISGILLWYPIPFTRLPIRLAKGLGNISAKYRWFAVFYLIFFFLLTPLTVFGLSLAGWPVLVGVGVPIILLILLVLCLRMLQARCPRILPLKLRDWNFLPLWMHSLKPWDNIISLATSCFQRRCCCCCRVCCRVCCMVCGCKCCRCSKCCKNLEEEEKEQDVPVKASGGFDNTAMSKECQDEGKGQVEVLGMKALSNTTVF
Kind of experiment: Inhibition of NaP2b-mediated Pi (33P) uptake in transfected HEK293 cells, rat NaP2b. The format is cell-based. Particulars: HEK293 cells transfected with rat NaP2b, 100 uM phosphate, 0.1 nM to 30 uM, read-out: pIC50 range for rat Nap2b (converted). On the procedure:
HEK293 cells were obtained from the American Type Culture collection and propagated per their instructions. Expression clones for rat and human NaP2b (SLC34A2) were obtained from Open Biosystems (Catalog numbers MRN1768-9510282, and MHS1010-99823026, respectively). The sequence of the human protein was mutated to insert a threonine after residue 37, and to introduce a N39D mutation.
Cells were seeded into 96-well plates at 25,000 cells/well and cultured overnight. Lipofectamine 2000 (Invitrogen) was used to introduce the NaP2b cDNA, and the cells were allowed to approach confluence during a second overnight incubation. […] Cells were then overlayed with either choline uptake buffer or sodium uptake buffer (14 mM Tris, 137 mM sodium chloride, 5.4 mM KCl, 2.8 mM CaCl2, 1.2 mM MgSO4, 100 uM KH2PO4, PiT-silencing agent, 1 mg/mL Bovine Serum Albumin, pH 7.4) containing 6-9 uCi/mL ^33P orthophosphoric acid (Perkin Elmer) and test compound. Each compound was tested at twelve concentrations ranging from 0.1 nM to 30 uM. Assays were run in duplicate.
Cells were lysed by addition of 20 μL 0.1% Tween 80 followed by 100 μL scintillation fluid, and counted using a TopCount (Perkin Elmer).
pIC50 (the negative log of the […]) values of the test compounds were calculated using GraphPad Prism.
Turning to `CC(=O)NC1CCN(Cc2cccc(C(=O)Nc3ccc(N4CCCCC4)cc3-c3cc(C(=O)NCc4cccc(C(F)(F)F)c4)ccn3)c2)C1` (stereo in doubt) [Example 48, (S)-2-(2-(3-((3-Acetamidopyrrolidin-1-yl)methyl)benzamido)-5-(piperidin-1-yl)phenyl)-N-(3-(trifluoromethyl)benzyl)isonicotinamide], the IC50 is 1 to 7.94 µM.

As to `O=C(O)CCSCc1cccc(C(=O)Nc2ccc(N3CCCCC3)cc2-c2cc(C(=O)NCc3ccccc3)ccn2)c1` [Example 1.4], the IC50 was 1 to 7.94 µM.

Turning to `O=C(O)CCSCc1cccc(C(=O)Nc2ccc(N3CCCCC3)cc2-c2cc(C(=O)N3CCCC3c3ccccc3)ccn2)c1` (centres unmarked) [Example 1.9], the IC50 is 10 to 31.6 µM.

In the case of `O=C(O)CCSCc1cccc(C(=O)Nc2ccc(N3CCCCC3)cc2-c2cc(C(=O)NCCCCCCCCCCCCNC(=O)c3ccnc(-c4cc(N5CCCCC5)ccc4NC(=O)c4cccc(CSCCC(=O)O)c4)c3)ccn2)c1` [Example 2], the IC50 was 10 to 31.6 µM.

On to `O=C(O)CCSCc1cccc(C(=O)Nc2ccc(N3CCCCC3)cc2-c2cc(C(O)CCc3ccccc3)ccn2)c1` (centres unmarked) [Example 6.1, 3-((3-((2-(4-(1-hydroxy-3-phenylpropyl)pyridin-2-yl)-4-(piperidin-1-yl)phenyl)carbamoyl)benzyl)thio)propanoic acid], for which the IC50 is 10 to 31.6 µM.

Take `CC(C)Oc1ccc(NC(=O)c2cccc(CSCCC(=O)O)c2)c(-c2cc(C(=O)NCc3cccc(C(F)(F)F)c3)ccn2)c1` [Example 15, 3-((3-((4-Isopropoxy-2-(4-((3-(trifluoromethyl)benzyl)carbamoyl)pyridin-2-yl)phenyl)carbamoyl)benzyl)thio)propanoic acid]: the IC50 is 1 to 7.94 µM.

On to `COCCN(CCOC)c1ccc(NC(=O)c2cccc(CSCCC(=O)O)c2)c(-c2cc(C(=O)NCc3cccc(C(F)(F)F)c3)ccn2)c1` [Example 17, 3-(3-((2-(4-((3-(trifluoromethyl)benzyl)carbamoyl)pyridin-2-yl)-4-(bis(2-methoxyethyl)amino)phenyl)carbamoyl)benzylthio)propanoic acid], for which the IC50 is 1 to 7.94 µM.

On to `O=C(O)CCSCc1cccc(C(=O)Nc2ccc(F)cc2-c2cc(C(=O)NCc3cccc(C(F)(F)F)c3)ccn2)c1` [Example 18, 3-((3-((4-Fluoro-2-(4-((3-(trifluoromethyl)benzyl)carbamoyl)pyridin-2-yl)phenyl)carbamoyl)benzyl)thio)propanoic acid], for which the IC50 was 1 to 7.94 µM.

With `CCCN(CCC)c1ccc(NC(=O)c2cccc(CSCCC(=O)O)c2)c(-c2cc(C(=O)NCc3cccc(C(F)(F)F)c3)ccn2)c1` [Example 19, 3-((3-((4-(Dipropylamino)-2-(4-((3-(trifluoromethyl)benzyl)carbamoyl)pyridin-2-yl)phenyl)carbamoyl)benzyl)thio)propanoic acid], the IC50 is 1 to 7.94 µM.

For `O=C(O)CCSCc1cccc(C(=O)Nc2ccc(N3CCCC3)cc2-c2cc(C(=O)NCc3cccc(C(F)(F)F)c3)ccn2)c1` [Example 20, 3-((3-((4-(Pyrrolidin-1-yl)-2-(4-((3-(trifluoromethyl)benzyl)carbamoyl)pyridin-2-yl)phenyl)carbamoyl)benzyl)thio)propanoic acid], the IC50 was 1 to 7.94 µM.

`O=C(O)CCSCc1cccc(C(=O)Nc2ccccc2-c2cc(C(=O)NCc3cccc(C(F)(F)F)c3)ccn2)c1` [Example 22, 3-((3-((2-(4-((3-(Trifluoromethyl)benzyl)carbamoyl)pyridin-2-yl)phenyl)carbamoyl)benzyl)thio)propanoic acid]: the IC50 is 10 to 31.6 µM.

On to `CN(CCN1CCOCC1)C(=O)c1cccc(C(=O)Nc2ccc(N3CCCCC3)cc2-c2cc(-c3cn(Cc4ccccc4)nn3)ccn2)c1` [Example 24, N1-(2-(4-(1-Benzyl-1H-1,2,3-triazol-4-yl)pyridin-2-yl)-4-(piperidin-1-yl)phenyl)-N3-methyl-N3-(2-morpholinoethyl)isophthalamide], for which the IC50 is 1 to 7.94 µM.

As to `O=C(O)CCSCc1cccc(C(=O)Nc2ccc(N3CCSCC3)cc2-c2cc(C(=O)NCc3cccc(C(F)(F)F)c3)ccn2)c1` [Example 27, 3-((3-((4-Thiomorpholino-2-(4-((3-(trifluoromethyl)benzyl)carbamoyl)pyridin-2-yl)phenyl)carbamoyl)benzyl)thio)propanoic acid], the IC50 is 1 to 7.94 µM.

Turning to `O=C(O)CCSCc1cccc(C(=O)Nc2ccc(N3CC4CCCC4C3)cc2-c2cc(C(=O)NCc3cccc(C(F)(F)F)c3)ccn2)c1` (centres unmarked) [Example 28, 3-((3-((4-(Hexahydrocyclopenta[c]pyrrol-2(1H)-yl)-2-(4-((3-(trifluoromethyl)-benzyl)carbamoyl)pyridin-2-yl)phenyl)carbamoyl)benzyl)thio)propanoic acid], the IC50 is 1 to 7.94 µM.

As to `CCOc1ccc(NC(=O)c2cccc(CSCCC(=O)O)c2)c(-c2cc(C(=O)NCc3cccc(C(F)(F)F)c3)ccn2)c1` [Example 29, 3-((3-((4-Ethoxy-2-(4-((3-(trifluoromethyl)benzyl)carbamoyl)pyridin-2-yl)phenyl)carbamoyl)benzyl)thio)propanoic acid], the IC50 is 1 to 7.94 µM.

With `COc1ccc(NC(=O)c2cccc(CSCCC(=O)O)c2)c(-c2cc(C(=O)NCc3cccc(C(F)(F)F)c3)ccn2)c1` [Example 30, 3-((3-((4-Methoxy-2-(4-((3-(trifluoromethyl)benzyl)carbamoyl)pyridin-2-yl)phenyl)carbamoyl)benzyl)thio)propanoic acid], the IC50 is 1 to 7.94 µM.

Take `COC1CCN(c2ccc(NC(=O)c3cccc(CSCCC(=O)O)c3)c(-c3cc(C(=O)NCc4cccc(C(F)(F)F)c4)ccn3)c2)CC1` [Example 31, 3-((3-((4-(4-Methoxypiperidin-1-yl)-2-(4-((3-(trifluoromethyl)benzyl)carbamoyl)-pyridin-2-yl)phenyl)carbamoyl)benzyl)thio)propanoic acid]: the IC50 is 10 to 31.6 µM.

Regarding `O=C(O)CCSCc1cccc(C(=O)Nc2ccc(OCC(F)(F)F)cc2-c2cc(C(=O)NCc3cccc(C(F)(F)F)c3)ccn2)c1` [Example 32], the IC50 was 10 to 31.6 µM.

Turning to `CC(C)COc1ccc(NC(=O)c2cccc(CSCCC(=O)O)c2)c(-c2cc(C(=O)NCc3cccc(C(F)(F)F)c3)ccn2)c1` [Example 33], the IC50 was 10 to 31.6 µM.

In the case of `COCCOc1ccc(NC(=O)c2cccc(CSCCC(=O)O)c2)c(-c2cc(C(=O)NCc3cccc(C(F)(F)F)c3)ccn2)c1` [Example 34, 3-((3-((4-(2-Methoxyethoxy)-2-(4-((3-(trifluoromethyl)benzyl)carbamoyl)pyridin-2-yl)phenyl)carbamoyl)benzyl)thio)propanoic acid], the IC50 was 10 to 31.6 µM.

Consider `CCSc1ccc(NC(=O)c2cccc(CSCCC(=O)O)c2)c(-c2cc(C(=O)NCc3cccc(C(F)(F)F)c3)ccn2)c1` [Example 35, 3-((3-((4-(Ethylthio)-2-(4-((3-(trifluoromethyl)benzyl)carbamoyl)pyridin-2-yl)phenyl)carbamoyl)benzyl)thio)propanoic acid], for which the IC50 is 1 to 7.94 µM.

`O=C(O)CCSCc1cccc(C(=O)Nc2ccc(Oc3ccccc3)cc2-c2cc(C(=O)NCc3cccc(C(F)(F)F)c3)ccn2)c1` [Example 36, 3-((3-((4-Phenoxy-2-(4-((3-(trifluoromethyl)benzyl)carbamoyl)pyridin-2-yl)phenyl)carbamoyl)benzyl)thio)propanoic acid]: the IC50 was 1 to 7.94 µM.

With `CN(CCN1CCN(S(C)(=O)=O)CC1)Cc1cccc(C(=O)Nc2ccc(N3CCCCC3)cc2-c2cc(C(=O)NCc3cccc(C(F)(F)F)c3)ccn2)c1` [Example 39], the IC50 was 1 to 7.94 µM.
